From paper PMC10940318, “Targeted intracellular delivery of dimeric STINGa by two pHLIP peptides for treatment of solid tumors” (Frontiers in Pharmacology, 2024)

Assays:
CT26 tumors = assay: Cytokine levels in tumor and serum by ELISA; type: in vivo, Balb/c mice
Method: To establish levels of cytokines in blood and tumor samples, 5 × 10^4 CT26 cancer cells were injected SQ in 100 µL of growth medium into the right flank of female Balb/c mice. When tumors reached 250–500 mm^3 in volume, the mice received a single IP injection of 300 μM 500 µL 2pHLIP-dMSA or no injections. Animals were euthanized at 6- and 24-h post-injection, blood and tumors were collected. Blood samples were kept for 40 min at RT, centrifuged at 5,000 g for 20 min at +4°C and supernatant (serum) was collected. Tumors were frozen in liquid nitrogen. Both the serum and the tumor tissue samples were kept at −80°C until further processing and analysis. The tumor samples were processed while on ice, using a bullet blender (Next Advance) with 1 mm diameter zirconium silicate beads (Next Advance). The supernatant of the processed tumors was used for enzyme-linked immunoassay (ELISA) assays. Matched antibody pair kits for mouse TNF alpha (Sino Biological), mouse IL-6 (Abcam), mouse IFN gamma (Invitrogen), mouse IFN beta (Bio-Techne), and a precoated mouse IFN alpha kit (Invitrogen) were used. For TNF alpha and IFN beta the capture antibodies were diluted in PBS (Cytiva), while the IL-6 and IFN gamma capture antibodies were diluted in their respective coating buffers. The diluted capture antibodies were incubated in the plates overnight at +4°C and washed the next day with PBS/Tween washing buffer (Sigma-Aldrich). The TNF alpha plate was blocked using 2% BSA (Thermo-Scientific) diluted in washing buffer, the IFN beta plate was blocked using 1% BSA diluted in PBS, while the IFN alpha, IFN gamma, and IL-6 plates were blocked using their respective dilution buffers. Blocking was done for 2 h at RT on an orbital shaker at 200 rpm. After blocking, the plates were washed and then incubated with the diluted tumor and serum samples along with the corresponding standard solutions for each ELISA kit. The samples were incubated for 2 h at RT on an orbital shaker at 200 rpm. The TNF alpha plate was incubated for 1 h at RT with a diluted detection antibody conjugated with horseradish peroxidase (HRP). The IL-6, IFN alpha, IFN beta, and IFN gamma plates were incubated for 1 h at RT with a diluted detection antibody conjugated with biotin followed by incubation for 1 h at RT with their respective diluted HRP-streptavidin conjugates. All plates were washed and incubated with 3,3′,5,5′-tetramethylbenzidine (TMB) (Invitrogen) and peroxide solution mixed at a ratio of 1:1 (Thermo Scientific) for up to 20 min, then a stop solution (10% H2SO4) was added to the plates. The signal from the wells was quantified by absorbance measured at 450 nm using a Bio-Rad iMark microplate reader. Antibody standards were used to plot calibration curves.

[1] = Body weight of treated mice; type: in vivo, Balb/c mice; details: two IP injections, 300 µM or 100 µM 500 µL, days 1 and 3
Method: For the treatment of CT26 tumors, 5 × 10^4 CT26 murine colorectal cancer cells (ATCC, CRL-2638) were injected subcutaneously (SQ) in 100 μL of growth medium into the right flank of female Balb/c mice ranging in age from 7 to 9 weeks (Envigo RMS, Inc.). […] 2pHLIP-dMSA was given as two IP injections of 300 μM 500 μL or 100 μM 500 μL (low dose). The compounds were dissolved in DMSO as a stock solution and transferred to PBS (vehicle). The residual DMSO in the final solution injected into animals was less than 2%. Tumor volume and body weight were measured 3 times per week throughout the study. Measurements of tumors were performed using calipers, and the tumor volume (V) was calculated with the formula: V=0.52∙L∙W^2 where L is the length and W is the width of the measured tumor. Mice were removed from the study and euthanized when the tumor volume was greater than 2,000 mm^3.

CT26 cancer cells = assay: Re-challenge of tumor-free mice with CT26 cancer cells; type: in vivo, Balb/c mice; details: 11 survivors of both dose groups, contralateral flank, kept 40 more days
Description: In the 2pHLIP-dMSA treated groups the mice that stayed tumor-free were re-challenged with tumor cells injected into the tumor-free flank on day 65 after the first injection of 2pHLIP-dMSA. Tumor-free mice were kept for an additional 40 days (total of 105 days after the treatment with 2pHLIP-dMSA) and then were euthanized.

[2] = Self-immolation kinetics of the S-S linker and payload release after DTT, by HPLC; type: physicochemical; details: DTT in 50 mM phosphate buffer, 150 mM NaCl, pH 7.4; HPLC at 0.5-48 h, UV 220/280/325 nm
Method: Figure S3. Kinetics of self-immolation of 2pHLIP-dMSA. […] Starting 2pHLIP-dMSA is shown on A.
Figure S4. Self-immolation kinetics of pHLIP-mMSA. HPLC chromatograms recorded at 280 nm and 325 nm for pHLIP-mMSA treated with DTT dissolved in 50 mM phosphate buffer containing 150 mM NaCl pH 7.4 at different time points ([…]) after addition of DTT (A-G) and the retention time for mMSA (H) and pHLIP (I) are shown. Starting pHLIP-mMSA is shown on A.

[3] = tested on: THP-1-Blue-ISG cells polarized into M2-type macrophages; assay: Activation of IFN (IRF-SEAP reporter) in M2-polarized macrophages; type: cell-based, human; details: THP1-Blue-ISG cells polarized by PMA, IL-4/IL-13, 2 h in DMEM without FBS pH 6.9, then 48 h, QUANTI-Blue, absorbance 655 nm, read-out: EC50 of activation of IRF signaling
Method: THP-1-Blue™-ISG cells (Invivogen) expressing an interferon (IFN) regulatory factor (IRF)-inducible secreted embryonic alkaline phosphatase (SEAP) reporter construct were used. Cells were maintained in RPMI growth medium supplemented with L-glutamine, sodium pyruvate, 10% fetal bovine serum (FBS), normocin and ciprofloxacin hydrochloride in a humidified atmosphere of 5% CO2 and 95% air at 37°C. Cells were seeded in 96-well plates at a density of 75,000 cells/well. To generate M2 polarized macrophages, cells were treated first with 185 ng/mL phorbol 12-myristate 13-acetate (PMA) for 6 h and then 20 ng/mL of interleukin 4 (IL-4) and 20 ng/mL of interleukin 13 (IL-13) (both from PeproTech) were added for another 16 h of treatment. […] After a 2-h incubation, an equal volume of RPMI supplemented with 20% heat-inactivated FBS was added, and cells were incubated for another 48 h. SEAP activity was accessed using the QUANTI-Blue™ Solution (Invivogen) to evaluate type I interferon protein levels: 150 μL of the colorimetric reagent was added to 50 μL of cell supernatant for 30 min, 37°C, followed by absorption measurement at 655 nm.

[4] = single IP injection 300 µM 500 µL, 6 and 24 h

Sequence: ADQDNPWRAYLDLLFPTDTLLLDLLWCG [2pHLIP-dMSA]
- IL-6 level in blood (Figure 4D, in words) (CT26 tumors; 6 h after single IP injection 300 µM 500 µL, returned to normal at 24 h): slight increase
- increase of TNF-α level in tumors (CT26 tumors; 6 h after single IP injection 300 µM 500 µL, vs untreated mice): 23 fold
- TNF-α level in tumors (in words) (CT26 tumors; 24 h after single IP injection 300 µM 500 µL): fell to a normal level
- level of IFN-α in tumors and serum (in words) (CT26 tumors; [4]): did not change much
- level of IFN-γ in tumors and serum (in words) (CT26 tumors; [4]): did not change much
- TNF-α level in serum (in words) (CT26 tumors; single IP injection 300 µM 500 µL, treated and untreated mice): insignificant
- IFN-β level in serum (in words) (CT26 tumors; single IP injection 300 µM 500 µL, two orders of magnitude lower than in tumors): slight increase
- increase of tumor level of IFN-β (CT26 tumors; single IP injection 300 µM 500 µL, vs untreated mice): 8 fold
- body weight change after treatment (in words) [1]: temporary weight loss followed by complete recovery and regain of weight
- tumor development after re-injection of cancer cells on day 65 (CT26 cancer cells): none of them developed tumors
- time to completion of linker self-immolation and release of payload in its original form [2]: ≤ 48 h
- EC50 [3]: 200 nM
